Assay results published in patent publication US11230541B2, “Heterocyclic compound” (Takeda Pharmaceutical Company Limited, priority 2017, dated 2022).

Tests used:
[1] = molecular target: T1, NMDA receptor containing the NR2B subunit (Homo sapiens, UniProt Q13224); conditions: continuous intravenous administration; cited from earlier work
[2] = molecular target: T2, NMDA receptor containing the NR2B subunit (Rattus norvegicus, UniProt Q00960); conditions: rodents; cited from earlier work
T2 construct: host or cells: rodents, in vivo
T2 sequence (Q00960 27-1482, other chains not shown): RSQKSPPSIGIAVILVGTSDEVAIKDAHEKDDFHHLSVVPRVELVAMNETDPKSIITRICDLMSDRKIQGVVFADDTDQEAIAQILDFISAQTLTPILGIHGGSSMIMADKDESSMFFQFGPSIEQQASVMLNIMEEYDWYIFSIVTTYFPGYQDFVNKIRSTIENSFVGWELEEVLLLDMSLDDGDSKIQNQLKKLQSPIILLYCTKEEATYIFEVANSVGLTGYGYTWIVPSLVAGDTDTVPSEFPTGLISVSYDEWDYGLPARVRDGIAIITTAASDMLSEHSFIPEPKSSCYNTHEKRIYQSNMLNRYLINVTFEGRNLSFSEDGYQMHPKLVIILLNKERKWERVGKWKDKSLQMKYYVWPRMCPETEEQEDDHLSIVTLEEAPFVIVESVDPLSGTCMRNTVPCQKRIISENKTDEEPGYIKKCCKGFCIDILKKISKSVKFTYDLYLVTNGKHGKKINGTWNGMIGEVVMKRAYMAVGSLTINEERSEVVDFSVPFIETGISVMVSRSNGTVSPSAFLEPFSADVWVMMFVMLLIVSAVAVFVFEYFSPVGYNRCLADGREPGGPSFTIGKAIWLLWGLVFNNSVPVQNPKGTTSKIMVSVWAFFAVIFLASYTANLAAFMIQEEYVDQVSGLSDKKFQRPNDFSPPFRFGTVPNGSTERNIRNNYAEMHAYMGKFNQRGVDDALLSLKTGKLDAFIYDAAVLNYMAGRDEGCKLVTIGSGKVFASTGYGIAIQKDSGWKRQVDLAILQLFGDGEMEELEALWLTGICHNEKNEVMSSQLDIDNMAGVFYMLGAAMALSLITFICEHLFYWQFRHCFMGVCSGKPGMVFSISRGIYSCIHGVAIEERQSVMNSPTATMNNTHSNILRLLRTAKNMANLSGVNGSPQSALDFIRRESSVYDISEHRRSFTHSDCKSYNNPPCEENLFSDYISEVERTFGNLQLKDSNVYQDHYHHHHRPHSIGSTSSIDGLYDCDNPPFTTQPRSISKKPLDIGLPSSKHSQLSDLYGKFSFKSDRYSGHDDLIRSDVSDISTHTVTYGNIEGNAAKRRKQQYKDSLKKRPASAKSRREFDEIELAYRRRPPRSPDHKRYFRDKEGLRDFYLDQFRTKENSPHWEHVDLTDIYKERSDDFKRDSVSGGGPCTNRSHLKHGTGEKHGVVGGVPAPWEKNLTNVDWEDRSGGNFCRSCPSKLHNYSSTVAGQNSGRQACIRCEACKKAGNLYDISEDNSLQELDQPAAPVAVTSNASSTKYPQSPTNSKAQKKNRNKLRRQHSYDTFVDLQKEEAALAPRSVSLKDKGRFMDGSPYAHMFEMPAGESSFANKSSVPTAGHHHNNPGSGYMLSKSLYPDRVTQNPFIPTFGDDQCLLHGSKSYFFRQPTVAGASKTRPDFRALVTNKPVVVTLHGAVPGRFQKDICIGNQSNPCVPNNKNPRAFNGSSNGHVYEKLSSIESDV

[3] = molecular target: T1, NMDA receptor containing the NR2B subunit; conditions: in vivo; cited from earlier work
[4] = test system: NMDA receptor; conditions: in vivo; cited from earlier work
[5] = test system: NMDA receptor; conditions: continuous intravenous administration; cited from earlier work
[6] = molecular target: T3, NMDA receptor composed of four subunits including 2 sets of heterodimers of NR1 and NR2B (Homo sapiens, UniProt Q13224); experiment: NR2B Ca2+ influx assay (FLIPR, Fluo-4) in HEK293 cells expressing human GRIN1 and GRIN2B; format: cell-based; conditions: glutamic acid/glycine-induced Ca2+ influx; for inhibition at 10 µM: HEK293, 10 μM final compound concentration, read-out: inhibitory rate (10 μM compound concentration)
T3 construct: host or cells: HEK293 (tetracycline-induced expression)
T3 sequence (Q13224 27-1484, other chains not shown): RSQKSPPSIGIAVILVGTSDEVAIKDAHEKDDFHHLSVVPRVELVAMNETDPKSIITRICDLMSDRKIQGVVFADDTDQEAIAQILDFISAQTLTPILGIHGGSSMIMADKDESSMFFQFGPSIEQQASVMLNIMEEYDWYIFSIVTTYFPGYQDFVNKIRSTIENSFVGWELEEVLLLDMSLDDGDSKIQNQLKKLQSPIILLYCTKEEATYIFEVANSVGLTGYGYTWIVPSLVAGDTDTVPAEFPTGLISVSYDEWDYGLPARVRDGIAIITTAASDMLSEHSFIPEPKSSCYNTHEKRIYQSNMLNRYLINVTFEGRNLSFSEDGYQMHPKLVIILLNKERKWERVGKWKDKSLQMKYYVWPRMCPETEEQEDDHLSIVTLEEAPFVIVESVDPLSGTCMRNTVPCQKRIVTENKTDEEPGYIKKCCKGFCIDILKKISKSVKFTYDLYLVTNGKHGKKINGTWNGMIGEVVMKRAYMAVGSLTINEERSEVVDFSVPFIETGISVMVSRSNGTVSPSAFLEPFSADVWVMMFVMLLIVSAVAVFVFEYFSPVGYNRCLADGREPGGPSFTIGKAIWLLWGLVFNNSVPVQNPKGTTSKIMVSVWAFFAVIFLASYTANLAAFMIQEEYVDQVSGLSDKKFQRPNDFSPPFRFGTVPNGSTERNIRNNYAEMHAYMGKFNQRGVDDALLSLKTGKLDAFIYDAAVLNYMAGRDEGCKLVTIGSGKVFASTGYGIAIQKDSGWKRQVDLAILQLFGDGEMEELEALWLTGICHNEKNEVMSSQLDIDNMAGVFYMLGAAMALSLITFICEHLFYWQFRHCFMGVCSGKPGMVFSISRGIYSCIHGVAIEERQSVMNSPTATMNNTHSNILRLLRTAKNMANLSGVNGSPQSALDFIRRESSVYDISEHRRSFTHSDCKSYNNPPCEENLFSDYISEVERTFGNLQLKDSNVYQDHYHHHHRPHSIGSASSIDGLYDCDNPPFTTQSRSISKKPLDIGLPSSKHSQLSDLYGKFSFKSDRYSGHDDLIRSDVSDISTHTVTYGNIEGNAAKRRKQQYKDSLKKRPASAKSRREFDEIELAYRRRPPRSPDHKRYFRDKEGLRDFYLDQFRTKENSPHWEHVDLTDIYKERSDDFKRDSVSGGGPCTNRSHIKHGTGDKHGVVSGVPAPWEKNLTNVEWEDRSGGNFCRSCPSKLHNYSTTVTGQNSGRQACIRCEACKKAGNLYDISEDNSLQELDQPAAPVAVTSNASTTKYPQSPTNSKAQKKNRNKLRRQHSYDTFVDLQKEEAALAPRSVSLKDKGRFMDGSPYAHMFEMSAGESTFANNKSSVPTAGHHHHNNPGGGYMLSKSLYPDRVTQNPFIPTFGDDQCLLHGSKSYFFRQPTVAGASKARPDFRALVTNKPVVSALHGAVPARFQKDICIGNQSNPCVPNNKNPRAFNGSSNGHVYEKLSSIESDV
Outline: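 Tetracycline-induced (2 h) HEK293 cells expressing human GRIN1/GRIN2B, Fluo-4-loaded, were preincubated 15 min at room temperature with compound at 10 μM final. FLIPR recorded Ca2+ influx every 3 s for 5 min after glutamate/glycine addition (30 μM in added buffer); inhibition from cumulative fluorescence relative to agonist-free wells.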

T1 sequence (Q13224 27-1484, other chains not shown): as above

Row | Structure (SMILES) | inhibition at 10 µM [6] [%] | also measured
1 | C[C@@H]([C@@H](O)c1ccc(O)cc1)N1CCC(O)(c2ccccc2)CC1 [CP-101, 606] |  | treatment resistant-depression symptom [1]: significantly improves treatment resistant-depression symptom; number of occurrence and depth of cortical spreading depression [2]: suppress the number of occurrence and the depth of cortical spreading depression
2 | CC(C(O)c1ccc(O)cc1)N1CCC(Cc2ccccc2)CC1 (stereo not shown) [Ifenprodil] |  | pain sense threshold [3]: pain sense threshold increases
3 | C[C@@H](CN1CCC(Cc2ccccc2)CC1)[C@@H](O)c1ccc(O)cc1 [Ro25-6981] |  | number of occurrence and depth of cortical spreading depression [2]: suppress the number of occurrence and the depth of cortical spreading depression
4 | CC12CC3CC(C)(C1)CC(N)(C3)C2 [memantine] |  | peripheral symptoms of dementia [4]: partially improves peripheral symptoms of dementia
5 | CNC1(c2ccccc2Cl)CCCCC1=O (stereo not shown) [ketamine] |  | depression symptom accompanying major depression and bipolar disorder [5]: improves depression symptom accompanying major depression and bipolar disorder rapidly and in a sustained manner
6 | CCc1ccc2ncn(C)c2c1CNC(=O)c1cnc(OC(F)F)c(F)c1 [Example 143, 6-(difluoromethoxy)-N-((6-ethyl-1-methyl-1H-benzimidazol-7-yl)methyl)-5-fluoronicotinamide] | 91 | 
7 | Cc1ccc2[nH]nnc2c1CNC(=O)c1ccc(OC(F)F)c(F)c1 [Example 263, 4-(difluoromethoxy)-3-fluoro-N-((5-methyl-1H-benzotriazol-4-yl)methyl)benzamide] | 98 | 
8 | COc1ccc2ncn(C)c2c1CNC(=O)c1ccc(F)c(Cl)c1 [Example 37, 3-chloro-4-fluoro-N-((6-methoxy-1-methyl-1H-benzimidazol-7-yl)methyl)benzamide] | 91 | 
9 | COc1ccc2ncn(C)c2c1CNC(=O)c1cc(F)c(F)c(Cl)c1 [Example 18, 3-chloro-4,5-difluoro-N-((6-methoxy-1-methyl-1H-benzimidazol-7-yl)methyl)benzamide] | 87 | 
10 | CCn1cnc2ccc(OC)c(CNC(=O)c3cc(F)c(OC)c(F)c3)c21 [Example 151, N-((1-ethyl-6-methoxy-1H-benzimidazol-7-yl)methyl)-3,5-difluoro-4-methoxybenzamide] | 83 | 
11 | COc1ccc2ncn(C)c2c1CNC(=O)c1ccc(Cl)s1 [Example 36, 5-chloro-N-((6-methoxy-1-methyl-1H-benzimidazol-7-yl)methyl)-thiophene-2-carboxamide] | 89 | 
12 | COc1ccc2ncn(C)c2c1CNC(=O)c1csc(C(F)F)c1 [Example 110, 5-(difluoromethyl)-N-((6-methoxy-1-methyl-1H-benzimidazol-7-yl)methyl)thiophene-3-carboxamide] | 92 | 
13 | COc1ncc(C(=O)NCc2c(C3CC3)ccc3[nH]nnc23)cc1F [Example 165, N-((5-cyclopropyl-1H-benzotriazol-4-yl)methyl)-5-fluoro-6-methoxynicotinamide] | 91 | 
14 | O=C(NCc1cccc2[nH]ncc12)c1ccc(C(F)(F)F)c(F)c1 [Example 174, 3-fluoro-N-(1H-indazol-4-ylmethyl)-4-(trifluoromethyl)-benzamide] | 80 | 
15 | O=C(NCc1c(C2CC2)ccc2[nH]ncc12)c1cc(F)c(F)c(F)c1 [Example 79, N-((5-cyclopropyl-1H-indazol-4-yl)methyl)-3,4,5-trifluoro-benzamide] | 92 | 
16 | COc1cc(C(=O)NCc2c(OC)ccc3ncn(C)c23)ccc1Cl [Example 45, 4-chloro-3-methoxy-N-((6-methoxy-1-methyl-1H-benzimidazol-7-yl)methyl)benzamide] | 64 | 
17 | COc1ccc2ncn(C)c2c1CNC(=O)Nc1ccccc1 [Example 255, 1-((6-methoxy-1-methyl-1H-benzimidazol-7-yl)methyl)-3-phenylurea] | 67 | 

Row | Structure (SMILES) | inhibition at 10 µM [6] [%] | also measured
18 | COc1c(F)cc(C(=O)NCc2c(C)ccc3[nH]nnc23)cc1F [Example 197, 3,5-difluoro-4-methoxy-N-((5-methyl-1H-benzotriazol-4-yl)methyl)benzamide] | 96 | 
19 | CCc1ccc2ncn(C)c2c1CNC(=O)c1ccc(OC(F)F)cc1 [Example 148, 4-(difluoromethoxy)-N-((6-ethyl-1-methyl-1H-benzimidazol-7-yl)methyl)benzamide] | 91 | 
20 | COc1ccc2ncn(C)c2c1CNC(=O)c1cnc(OC)c(F)c1 [Example 10, 5-fluoro-6-methoxy-N-((6-methoxy-1-methyl-1H-benzimidazol-7-yl)methyl)nicotinamide] | 92 | 
21 | COc1ccc2ncn(C)c2c1CNC(=O)Nc1cccc(C)c1 [Example 215, 1-((6-methoxy-1-methyl-1H-benzimidazol-7-yl)methyl)-3-(3-methylphenyl)urea] | 53 | 
22 | COc1ccc(C(=O)NCc2c(C3CC3)ccc3[nH]ncc23)cc1F [Example 94, N-((5-cyclopropyl-1H-indazol-4-yl)methyl)-3-fluoro-4-methoxy-benzamide] | 93 | 
23 | COc1ccc2ncn(C)c2c1CNC(=O)c1ccc(C(F)(F)F)s1 [Example 50, N-((6-methoxy-1-methyl-1H-benzimidazol-7-yl)-methyl)-5-(trifluoro-methyl)thiophene-2-carboxainide] |  | inhibitory rate (10 μM compound concentration) ([6]; 10 μM final compound concentration): 89
24 | CCOc1ccc2ncn(C)c2c1CNC(=O)c1ccc(C(F)F)c(F)c1 [Example 141, 4-(difluoromethyl)-N-((6-ethoxy-1-methyl-1H-benzimidazol-7-yl)methyl)-3-fluorobenzamide] | 90 | 
25 | COc1ccc2ncn(C)c2c1CNC(=O)Nc1ccc(OC(F)F)cc1 [Example 221, 1-(4-(difluoromethoxy)-phenyl)-3-((6-methoxy-1-methyl-lH-benzimidazol-7-yl)methyl)urea] | 88 | 
26 | CCOc1ccc2ncn(C)c2c1CNC(=O)c1ccc(C(F)(F)F)cc1 [Example 128, N-((6-ethoxy-1-methyl-1H-benzimidazol-7-yl)methyl)-4-(trifluoromethyl)-benzamide] | 91 | 
27 | Cc1ccc2ncn(C)c2c1CNC(=O)c1ccc(OC(F)F)nc1 [Example 159, 6-(difluoromethoxy)-N-((1,6-dimethyl-1H-benzimidazol-7-yl)methyl)nicotinamide] | 86 | 
28 | O=C(NCc1cccc2[nH]ncc12)c1ccc(OC(F)F)c(Cl)c1 [Example 182, 3-chloro-4-(difluoromethoxy)-N-(1H-indazol-4-ylmethyl)benzamide] | 97 | 
29 | CCOc1ncc(C(=O)NCc2c(C3CC3)ccc3[nH]ncc23)cc1Cl [Example 104, 5-chloro-N-((5-cyclopropyl-1H-indazol-4-yl)methyl)-6-ethoxynicotinamide] | 90 | 
30 | O=C(NCc1c(C2CC2)ccc2[nH]ncc12)c1cc(F)c(F)c(Cl)c1 [Example 95, 3-chloro-N-((5-cyclopropyl-1H-indazol-4-yl)methyl)-4,5-difluorobenzamide] | 95 | 
31 | O=C(NCc1c(C2CC2)ccc2[nH]ncc12)c1ccc(OC(F)(F)F)cc1 [Example 62, N-((5-cyclopropyl-1H-indazol-4-yl)methyl)-4-(trifluoromethoxy)-benzamide] | 94 | 
32 | CCc1ccc2ncn(C)c2c1CNC(=O)c1ccc(OC(F)(F)F)nc1 [Example 149, N-((6-ethyl-1-methyl-1H-benzimidazol-7-yl)methyl)-6-(trifluoromethoxy)-nicotinamide] | 93 | 
33 | COc1ncc(C(=O)NCc2c(C)ccc3[nH]nnc23)cc1F [Example 193, 5-fluoro-6-methoxy-N-((5-methyl-1H-benzotriazol-4-yl)methyl)nicotinamide] | 86 | 
